Experimental findings from ChEMBL document CHEMBL1201862, “PubChem BioAssay data set” (2004) are described below.

The target of experiment [1] is ADP-ribosylation factor GTPase-activating protein 1 (Rattus norvegicus, UniProt Q62848). Nature of the experiment: Fluorescence polarization-based biochemical high throughput dose response screening assay to identify inhibitors of ADP-ribosylation factor GTPase activating protein 1 (ARFGAP1). The format is functional. A general note: Polarisation of emitted light reports the rotation of a fluorescent probe.

A further experiment relates to Vero. Nature of the experiment: Vero cell toxicity, dose response, cytotoxicity control, plate reader, cherry-pick samples (AID 687020). The format is functional, cell-based. Particulars: Chlorocebus sabaeus.
Experiment [2] is described as follows: Counterscreen for inhibitors of Trypanosoma brucei methionyl tRNA synthetase (MetRS): Luminescence-based cell-based high throughput dose response assay to identify compounds that are cytotoxic to Jurkat human T lymphocyte cells. The format is functional. On the technique in general: The purpose of a counterscreen is to sort out artefacts and off-target activity.

Experiment [3] addresses Long-chain-fatty-acid--AMP ligase FadD28 (Mycobacterium tuberculosis, UniProt P9WQ59). The experiment can be described thus: Fluorescence polarization aasay to screen for inhibitors that compete for the binding of FadD28 to a bisubstrate Measured in Biochemical System Using Plate Reader - 2147-01_Inhibitor_Dose_CherryPick_Activity. The format is functional, Mycobacterium tuberculosis H37Rv.

In experiment [4] the target is T1, Methionyl-tRNA synthetase, putative (Trypanosoma brucei brucei, UniProt Q38C91). In kind it is functional, Trypanosoma brucei brucei strain 927/4 GUTat10.1.
In experiment [5] the target is T1, Methionyl-tRNA synthetase, putative. In kind it is functional, Trypanosoma brucei brucei strain 927/4 GUTat10.1. The source holds these as a separate data set.
Experiment [6] addresses T2, Beta-lactamase (Pseudomonas aeruginosa, UniProt Q79MP6). The experiment can be described thus: […] counterscreen for selective VIM-2 inhibitors: dose response biochemical high throughput screening assay to identify inhibitors of IMP-1 metallo-beta-lactamase.
For experiment [7], the target named is Beta-lactamase (Salmonella choleraesuis (strain SC-B67), UniProt Q5J463). Nature of the experiment: Epi-absorbance-based counterscreen for selective VIM-2 inhibitors: dose response biochemical high throughput screening assay to identify inhibitors of TEM-1 serine-beta-lactamase.
Experiment [8] deals with T2, Beta-lactamase. The experiment can be described thus: IMP-1 metallo-beta-lactamase inhibitors, dose response, selectivity assay for VIM-2 inhibitor project, biochemical, epi-absorbance (AID 1920).
The test system of a further experiment is INS1. The experiment can be described thus: beta cell apoptosis inhibitors, cytokine rescue, dose response, luminescence, retest (AID 449756).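 Note: cell death triggered by IL-1 beta plus TNF-alpha plus IFN-gamma mixture; protective hits raise ATP signal compared with cytokine alone wells.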 In kind it is functional, cell-based. The following applies: Rattus norvegicus.
Another experiment concerns the target Cytochrome P450 2D6 (Homo sapiens, UniProt P10635).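 Note: CYP2D6 member of a cytochrome P450 panel assay.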
The target of another experiment is Protein Wnt-3a (Mus musculus, UniProt P27467). The experiment can be described thus: Wnt3a-driven reporter signaling inhibition, dose response, selectivity assay for Gli-SUFU antagonist project, Wnt-LIGHT cells, luminescence (AID 651570).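 Note: Wnt-LIGHT reporter cells stimulated with conditioned medium from Wnt3a-producing cells.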 Particulars: read-out: IC50_Mean. In kind it is functional.

Activity calls are given as the source filed them.

T1 sequence (Q38C91 whole entry): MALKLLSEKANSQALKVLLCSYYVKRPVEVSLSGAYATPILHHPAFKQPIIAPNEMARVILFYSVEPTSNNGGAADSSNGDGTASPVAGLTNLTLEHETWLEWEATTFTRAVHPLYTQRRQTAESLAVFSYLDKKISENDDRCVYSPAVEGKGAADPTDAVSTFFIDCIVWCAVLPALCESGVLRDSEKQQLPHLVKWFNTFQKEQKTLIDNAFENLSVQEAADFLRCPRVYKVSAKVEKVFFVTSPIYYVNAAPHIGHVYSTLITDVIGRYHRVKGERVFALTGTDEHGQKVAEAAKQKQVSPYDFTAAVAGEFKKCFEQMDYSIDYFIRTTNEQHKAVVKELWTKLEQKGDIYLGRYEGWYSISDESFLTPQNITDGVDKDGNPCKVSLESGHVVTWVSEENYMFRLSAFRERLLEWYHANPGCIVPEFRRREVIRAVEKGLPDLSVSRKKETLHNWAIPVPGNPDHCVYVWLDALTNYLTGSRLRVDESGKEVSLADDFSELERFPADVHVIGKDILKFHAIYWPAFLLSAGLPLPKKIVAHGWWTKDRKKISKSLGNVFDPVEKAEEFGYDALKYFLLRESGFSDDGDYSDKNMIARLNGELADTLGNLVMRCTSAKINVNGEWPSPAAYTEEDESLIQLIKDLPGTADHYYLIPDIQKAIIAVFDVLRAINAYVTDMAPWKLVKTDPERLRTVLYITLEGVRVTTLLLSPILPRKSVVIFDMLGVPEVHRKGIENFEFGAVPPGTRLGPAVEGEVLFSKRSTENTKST
T2 sequence (Q79MP6 whole entry): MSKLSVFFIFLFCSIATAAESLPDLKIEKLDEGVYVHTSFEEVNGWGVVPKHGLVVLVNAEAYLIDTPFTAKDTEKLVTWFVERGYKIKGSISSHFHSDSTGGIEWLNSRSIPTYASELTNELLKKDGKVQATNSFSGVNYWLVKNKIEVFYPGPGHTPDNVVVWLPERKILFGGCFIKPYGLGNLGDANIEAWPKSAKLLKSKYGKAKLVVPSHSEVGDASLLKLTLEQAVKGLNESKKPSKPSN
Sequence of Cytochrome P450 2D6 (P10635 whole entry): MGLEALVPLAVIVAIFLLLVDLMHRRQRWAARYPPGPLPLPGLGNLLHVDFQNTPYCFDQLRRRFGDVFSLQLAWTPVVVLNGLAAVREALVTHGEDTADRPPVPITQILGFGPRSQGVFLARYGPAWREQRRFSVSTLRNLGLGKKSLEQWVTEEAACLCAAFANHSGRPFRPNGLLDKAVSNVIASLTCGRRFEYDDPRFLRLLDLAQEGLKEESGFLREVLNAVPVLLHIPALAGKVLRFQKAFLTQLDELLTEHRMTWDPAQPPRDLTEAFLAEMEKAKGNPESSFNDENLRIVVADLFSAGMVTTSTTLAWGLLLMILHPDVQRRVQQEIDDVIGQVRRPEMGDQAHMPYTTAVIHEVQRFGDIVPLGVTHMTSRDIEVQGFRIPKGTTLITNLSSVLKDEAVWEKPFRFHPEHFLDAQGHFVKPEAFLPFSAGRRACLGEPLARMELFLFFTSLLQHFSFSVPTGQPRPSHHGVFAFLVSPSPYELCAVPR
Sequence of Protein Wnt-3a (P27467 whole entry): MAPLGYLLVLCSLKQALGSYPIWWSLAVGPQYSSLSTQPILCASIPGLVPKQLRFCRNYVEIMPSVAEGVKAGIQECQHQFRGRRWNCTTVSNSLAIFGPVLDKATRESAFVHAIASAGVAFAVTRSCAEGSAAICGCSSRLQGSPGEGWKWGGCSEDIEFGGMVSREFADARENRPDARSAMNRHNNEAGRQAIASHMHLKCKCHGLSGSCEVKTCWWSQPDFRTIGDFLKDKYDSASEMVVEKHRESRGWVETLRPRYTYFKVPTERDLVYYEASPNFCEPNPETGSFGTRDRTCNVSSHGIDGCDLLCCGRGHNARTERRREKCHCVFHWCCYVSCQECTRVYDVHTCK
Sequence of Long-chain-fatty-acid--AMP ligase FadD28 (P9WQ59 whole entry): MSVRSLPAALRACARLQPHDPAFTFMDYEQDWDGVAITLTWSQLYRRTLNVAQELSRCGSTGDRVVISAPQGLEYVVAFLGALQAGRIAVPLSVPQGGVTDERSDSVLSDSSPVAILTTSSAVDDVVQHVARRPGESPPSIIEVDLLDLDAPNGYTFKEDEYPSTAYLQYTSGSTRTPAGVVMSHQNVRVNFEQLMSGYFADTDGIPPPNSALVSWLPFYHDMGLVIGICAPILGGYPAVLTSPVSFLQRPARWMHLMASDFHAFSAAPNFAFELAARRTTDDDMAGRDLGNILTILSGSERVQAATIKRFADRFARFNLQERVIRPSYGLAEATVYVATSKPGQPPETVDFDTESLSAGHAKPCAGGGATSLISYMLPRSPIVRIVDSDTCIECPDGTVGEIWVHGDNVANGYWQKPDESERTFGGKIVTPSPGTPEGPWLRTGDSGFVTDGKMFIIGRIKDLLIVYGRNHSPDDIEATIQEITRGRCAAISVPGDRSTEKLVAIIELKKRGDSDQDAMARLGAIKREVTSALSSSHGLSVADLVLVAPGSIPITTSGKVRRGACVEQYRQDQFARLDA
Sequence of Beta-lactamase (Salmonella choleraesuis (strain SC-B67), UniProt Q5J463) (Q5J463 whole entry): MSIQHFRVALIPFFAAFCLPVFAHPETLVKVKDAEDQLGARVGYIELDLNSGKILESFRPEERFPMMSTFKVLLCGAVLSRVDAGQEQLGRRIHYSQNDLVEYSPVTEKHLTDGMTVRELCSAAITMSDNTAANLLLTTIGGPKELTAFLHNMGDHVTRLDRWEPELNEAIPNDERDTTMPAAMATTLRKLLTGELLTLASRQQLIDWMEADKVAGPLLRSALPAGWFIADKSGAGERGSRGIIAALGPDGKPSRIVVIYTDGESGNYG
Sequence of ADP-ribosylation factor GTPase-activating protein 1 (Q62848 whole entry): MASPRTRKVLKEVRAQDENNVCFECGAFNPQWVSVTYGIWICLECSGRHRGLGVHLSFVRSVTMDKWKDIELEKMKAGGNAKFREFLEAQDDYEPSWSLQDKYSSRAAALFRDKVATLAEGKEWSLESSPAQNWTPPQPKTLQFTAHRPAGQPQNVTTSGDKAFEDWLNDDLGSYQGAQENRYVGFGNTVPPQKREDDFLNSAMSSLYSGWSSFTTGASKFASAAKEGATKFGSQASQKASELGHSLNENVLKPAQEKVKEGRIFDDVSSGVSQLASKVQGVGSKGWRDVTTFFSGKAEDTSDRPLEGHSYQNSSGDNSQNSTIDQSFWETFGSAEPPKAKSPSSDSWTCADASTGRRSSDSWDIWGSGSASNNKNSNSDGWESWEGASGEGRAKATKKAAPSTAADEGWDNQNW

With `CCOC(=O)N1CCN(C(=O)CSc2nc(=O)n3cc(C)ccc3n2)CC1`, the IC50 in [1] was 53.2 µM (inactive).
One may read the AC50 as the concentration at which the activity in the assay is half-maximal. Consider `CN1C[C@@H]2[C@@H]3C(=O)N(Cc4ccccc4)C(=O)[C@@H]3[C@](C)(C1=O)N2C(=O)c1ccc(C(C)(C)C)cc1`, for which the AC50 in the experiment on Vero is 24.6 µM (active).
With `O=C(NN1C(=O)/C(=C/c2nc3ccccc3[nH]2)SC1=S)c1ccc(Cl)cc1`, the IC50 in experiment [2] is 83.3 µM (inactive); in experiment [4] it was 119 µM (inactive); in experiment [5], 82.6 µM (inactive). Besides, the AC50 in experiment [3] is 1.13 µM (active).
`Sc1nnc(-c2ccco2)n1-c1cccc2ccccc12`: the IC50 on Beta-lactamase [6], on Beta-lactamase [7] and at Beta-lactamase [8] was > 59.6 µM (inactive) in each case.
`Cc1cc(/C=N/n2cnnc2)c(C)n1-c1ccc(OCc2ccccc2F)cc1`: the AC50 in the experiment on INS1 was 3.41 µM (active); on Cytochrome P450 2D6 it was 17.8 µM (inconclusive). Moreover, the IC50 at Protein Wnt-3a was 6.57 µM (active).
